Reference: ChEMBL document CHEMBL5260820, “Discovery of novel steroidal histamine H3 receptor antagonists/inverse agonists” (Bioorg Med Chem Lett, 2017)
Values after ≈ are worked out from the molar mass of the structure shown.

Tests used:
Histamine H3 receptor [1] = target: Histamine H3 receptor (Rattus norvegicus, UniProt Q9QYN8); experiment: Displacement of N-alpha-[methyl-3H]-methylhistamine dihydrochloride from Sprague-Dawley rat brain membrane histamine H3 receptor assessed as inhibition constant incubated for 30 mins by liquid scintillation counting analysis; format: cell membranes
Chain of Histamine H3 receptor (Rattus norvegicus, UniProt Q9QYN8) (Q9QYN8 whole entry): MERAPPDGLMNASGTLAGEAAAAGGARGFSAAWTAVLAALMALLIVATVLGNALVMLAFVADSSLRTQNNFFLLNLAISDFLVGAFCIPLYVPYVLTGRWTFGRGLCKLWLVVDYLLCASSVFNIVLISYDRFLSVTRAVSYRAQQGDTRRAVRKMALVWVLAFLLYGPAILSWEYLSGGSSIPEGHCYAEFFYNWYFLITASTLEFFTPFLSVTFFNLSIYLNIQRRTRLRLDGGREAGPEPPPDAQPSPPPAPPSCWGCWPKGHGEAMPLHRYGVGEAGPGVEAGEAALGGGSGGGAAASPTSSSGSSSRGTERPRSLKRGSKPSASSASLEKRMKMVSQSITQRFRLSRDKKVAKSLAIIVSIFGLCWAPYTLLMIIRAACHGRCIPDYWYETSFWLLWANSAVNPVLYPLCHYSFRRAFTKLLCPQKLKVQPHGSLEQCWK

[2] = Selectivity index, ratio of Ki for displacement of [3H]quinuclidinyl benzilate from Wistar rat cortex muscarinic AChR to Ki for N-alpha-[methyl-3H]-methylhistamine dihydrochloride from Sprague-Dawley rat brain membrane histamine H3 receptor
Rattus norvegicus [3] = organism: Rattus norvegicus; experiment: Displacement of [3H]quinuclidinyl benzilate from Wistar rat cortex muscarinic AChR at 1 uM by liquid scintillation counting analysis relative to control; format: tissue-based
Histamine H3 receptor [4] = target: T1, Histamine H3 receptor (Homo sapiens, UniProt Q9Y5N1); experiment: Inverse agonist activity at recombinant human histamine H3 receptor expressed in CHO-K1 cells preincubated for 10 mins followed by [35S]GTPgammaS addition and measured after 60 mins by TopCount NXT based scintillation analysis; format: cell-based
T1 sequence (Q9Y5N1 whole entry): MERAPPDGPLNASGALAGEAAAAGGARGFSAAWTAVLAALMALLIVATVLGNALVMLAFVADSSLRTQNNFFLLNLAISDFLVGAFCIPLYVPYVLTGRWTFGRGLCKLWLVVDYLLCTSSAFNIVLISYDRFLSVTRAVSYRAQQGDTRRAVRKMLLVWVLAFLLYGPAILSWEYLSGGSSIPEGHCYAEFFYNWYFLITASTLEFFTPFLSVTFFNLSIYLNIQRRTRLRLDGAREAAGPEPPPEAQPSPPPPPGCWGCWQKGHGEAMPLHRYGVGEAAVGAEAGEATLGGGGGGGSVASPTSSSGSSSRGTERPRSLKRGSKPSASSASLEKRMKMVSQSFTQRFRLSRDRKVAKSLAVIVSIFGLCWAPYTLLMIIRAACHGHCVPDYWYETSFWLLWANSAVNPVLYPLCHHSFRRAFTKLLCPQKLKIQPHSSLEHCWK

[5] = Displacement of [3H]quinuclidinyl benzilate from Wistar rat cortex muscarinic AChR assessed as inhibition constant by liquid scintillation counting analysis; format: tissue-based
Histamine H3 receptor [6] = target: T1, Histamine H3 receptor; experiment: Antagonist activity at human histamine H3 receptor expressed in CHO-K1 cells assessed as inhibition of imetit-stimulation ERK1/2 phosphorylation by ELISA analysis; format: cell-based
Histamine H3 receptor [7] = target: T1, Histamine H3 receptor; experiment: Displacement of N-alpha-[methyl-3H]-methylhistamine dihydrochloride from recombinant human histamine H3 receptor expressed in CHO-K1 cells assessed as inhibition constant incubated for 30 mins by liquid scintillation analysis; format: cell-based
[8] = target: Histamine H3 receptor (Rattus norvegicus) (UniProt Q9QYN8); experiment: Displacement of N-alpha-[methyl-3H]-methylhistamine dihydrochloride from Sprague-Dawley rat brain membrane histamine H3 receptor at 300 nM incubated for 30 mins by liquid scintillation counting analysis relative to control; format: cell membranes
Chain of Histamine H3 receptor (Rattus norvegicus) (Q9QYN8 whole entry): as the sequence (Q9QYN8 whole entry) above

[9] = Stability in human microsomes; format: ADME, Microsome
[10] = Terminal half-life in Wistar rat brain at 3 mg/kg, po or iv measured upto 5 hrs by HPLC-MS/MS analysis; format: ADME, organism-based; settings: read-out: beta t1/2 (converted)
[11] = Apparent permeability in vinblastine treated human CaCo-2 cells; format: ADME, cell-based
[12] = Volume of distribution in Wistar rat at 3 mg/kg, po or iv measured upto 5 hrs by HPLC-MS/MS analysis; format: ADME, organism-based; settings: in vivo
[13] = Stability in rat microsomes; format: ADME, Microsome
[14] = Terminal half-life in Wistar rat plasma at 3 mg/kg, po or iv measured upto 5 hrs by HPLC-MS/MS analysis; format: ADME, organism-based; settings: read-out: beta t1/2 (converted)
[15] = Bioavailability in Wistar rat at 3 mg/kg, po or iv measured upto 5 hrs by HPLC-MS/MS analysis; format: ADME, organism-based; settings: in vivo
Rattus norvegicus [16] = experiment: Anti-dipsogenic activity in imetit-induced Wistar rat model assessed as inhibition of imetit-induced water intake at 10 mg/kg, po preadministered for 30 mins followed by imetit stimulation and measured after 40 mins relative to control; format: functional; settings: 1.167 h, time 70 min
[17] = Ratio AUC in Wistar rat brain to plasma at 3 mg/kg, po or iv measured upto 5 hrs by HPLC-MS/MS analysis; format: ADME, organism-based; settings: brain and plasma, read-out: Ratio AUC
Rattus norvegicus [18] = organism: Rattus norvegicus; experiment: Displacement of [3H]quinuclidinyl benzilate from Wistar rat cortex muscarinic AChR at 3 uM by liquid scintillation counting analysis relative to control; format: tissue-based
[19] = Tmax in Wistar rat at 3 mg/kg, po or iv measured upto 5 hrs by HPLC-MS/MS analysis; format: ADME, organism-based; settings: in vivo
Histamine H3 receptor [20] = target: T1, Histamine H3 receptor; experiment: Inverse agonist activity at recombinant human histamine H3 receptor expressed in CHO-K1 cells assessed as maximal efficacy preincubated for 10 mins followed by [35S]GTPgammaS addition and measured after 60 mins by TopCount NXT based scintillation analysis relative to control; format: cell-based; settings: time 70.0 min
[21] = Thermodynamic […] of the compound measured after 24 hrs by HPLC-UV-MS analysis; format: physicochemical; settings: read-out: Therm_solubility
[22] = target: T2, Estrogen receptor (Homo sapiens) (UniProt P03372); experiment: Binding affinity to Estrogen receptor alpha (unknown origin) at 1 uM by displacement assay relative to control
T2 sequence (whole entry): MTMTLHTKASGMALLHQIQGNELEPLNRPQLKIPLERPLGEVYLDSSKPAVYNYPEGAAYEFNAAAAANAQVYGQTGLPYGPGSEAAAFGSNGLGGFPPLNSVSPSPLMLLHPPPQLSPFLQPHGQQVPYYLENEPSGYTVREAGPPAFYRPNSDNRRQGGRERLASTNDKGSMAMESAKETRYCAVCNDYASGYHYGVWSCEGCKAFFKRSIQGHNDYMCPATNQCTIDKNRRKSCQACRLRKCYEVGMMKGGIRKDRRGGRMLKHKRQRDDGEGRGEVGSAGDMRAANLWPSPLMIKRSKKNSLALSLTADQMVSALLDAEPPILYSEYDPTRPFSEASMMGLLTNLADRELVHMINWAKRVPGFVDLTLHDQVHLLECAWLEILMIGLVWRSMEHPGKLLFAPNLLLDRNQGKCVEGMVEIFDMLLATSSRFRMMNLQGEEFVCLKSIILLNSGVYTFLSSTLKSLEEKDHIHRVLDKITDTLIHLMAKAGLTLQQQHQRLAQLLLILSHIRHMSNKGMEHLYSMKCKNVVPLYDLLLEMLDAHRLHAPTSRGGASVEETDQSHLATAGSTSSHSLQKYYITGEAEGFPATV

[23] = target: Histamine H2 receptor (Homo sapiens) (UniProt P25021); experiment: Displacement of [3H]tiotidine from recombinant human histamine H2 receptor expressed in CHO-K1 cell membrane at 1 uM incubated for 45 mins by Scintillation counter analysis relative to control; format: cell membranes
Chain of Histamine H2 receptor (Homo sapiens) (P25021 whole entry): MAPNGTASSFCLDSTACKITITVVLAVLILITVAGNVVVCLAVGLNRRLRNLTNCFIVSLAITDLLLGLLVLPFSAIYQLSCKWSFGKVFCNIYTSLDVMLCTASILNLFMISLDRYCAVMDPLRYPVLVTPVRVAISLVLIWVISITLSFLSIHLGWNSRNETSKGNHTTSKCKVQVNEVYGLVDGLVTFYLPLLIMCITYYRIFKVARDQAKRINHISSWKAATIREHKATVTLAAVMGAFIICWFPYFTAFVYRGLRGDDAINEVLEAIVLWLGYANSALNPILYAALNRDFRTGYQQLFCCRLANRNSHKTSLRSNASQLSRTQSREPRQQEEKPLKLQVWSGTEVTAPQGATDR

[24] = target: Histamine H4 receptor (Homo sapiens) (UniProt Q9H3N8); experiment: Displacement of [3H]histamine from human histamine H4 receptors expressed in CHO-K1 cell membrane at 1 uM incubated for 30 mins by scintillation counter analysis relative to control; format: cell membranes
Chain of Histamine H4 receptor (Homo sapiens) (Q9H3N8 whole entry): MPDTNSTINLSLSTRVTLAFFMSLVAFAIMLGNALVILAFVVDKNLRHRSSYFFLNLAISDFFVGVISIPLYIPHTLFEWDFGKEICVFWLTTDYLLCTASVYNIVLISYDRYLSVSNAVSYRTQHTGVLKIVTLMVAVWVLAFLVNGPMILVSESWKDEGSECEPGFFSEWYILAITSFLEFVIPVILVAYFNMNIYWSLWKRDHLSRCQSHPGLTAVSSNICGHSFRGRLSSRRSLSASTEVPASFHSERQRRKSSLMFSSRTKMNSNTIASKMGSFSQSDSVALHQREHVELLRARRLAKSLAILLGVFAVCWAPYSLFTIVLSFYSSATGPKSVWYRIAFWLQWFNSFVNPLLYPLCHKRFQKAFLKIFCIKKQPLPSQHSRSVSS

[25] = target: Histamine H1 receptor (Homo sapiens) (UniProt P35367); experiment: Displacement of [3H]pyrilamine from recombinant human histamine H1 receptor expressed in CHO-K1 cell membrane at 1 uM incubated for 30 mins by liquid scintillation counter analysis relative to control; format: cell membranes
Chain of Histamine H1 receptor (Homo sapiens) (P35367 whole entry): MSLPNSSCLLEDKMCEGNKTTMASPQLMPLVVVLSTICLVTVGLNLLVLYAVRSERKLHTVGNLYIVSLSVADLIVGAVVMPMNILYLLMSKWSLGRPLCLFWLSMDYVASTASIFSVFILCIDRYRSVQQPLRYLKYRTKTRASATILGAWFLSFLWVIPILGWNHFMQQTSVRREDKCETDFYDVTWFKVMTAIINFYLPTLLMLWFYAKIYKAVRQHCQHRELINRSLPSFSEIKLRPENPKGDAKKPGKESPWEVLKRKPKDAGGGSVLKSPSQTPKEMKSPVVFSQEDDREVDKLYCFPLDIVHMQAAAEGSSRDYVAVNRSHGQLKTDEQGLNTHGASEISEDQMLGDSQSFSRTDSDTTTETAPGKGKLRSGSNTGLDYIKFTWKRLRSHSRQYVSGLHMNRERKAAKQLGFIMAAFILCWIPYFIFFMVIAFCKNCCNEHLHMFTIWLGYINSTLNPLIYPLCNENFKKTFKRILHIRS

[26] = target: Estrogen receptor beta (Homo sapiens) (UniProt Q92731); experiment: Binding affinity to Estrogen receptor beta (unknown origin) at 1 uM by displacement assay relative to control
Chain of Estrogen receptor beta (Homo sapiens) (Q92731 whole entry): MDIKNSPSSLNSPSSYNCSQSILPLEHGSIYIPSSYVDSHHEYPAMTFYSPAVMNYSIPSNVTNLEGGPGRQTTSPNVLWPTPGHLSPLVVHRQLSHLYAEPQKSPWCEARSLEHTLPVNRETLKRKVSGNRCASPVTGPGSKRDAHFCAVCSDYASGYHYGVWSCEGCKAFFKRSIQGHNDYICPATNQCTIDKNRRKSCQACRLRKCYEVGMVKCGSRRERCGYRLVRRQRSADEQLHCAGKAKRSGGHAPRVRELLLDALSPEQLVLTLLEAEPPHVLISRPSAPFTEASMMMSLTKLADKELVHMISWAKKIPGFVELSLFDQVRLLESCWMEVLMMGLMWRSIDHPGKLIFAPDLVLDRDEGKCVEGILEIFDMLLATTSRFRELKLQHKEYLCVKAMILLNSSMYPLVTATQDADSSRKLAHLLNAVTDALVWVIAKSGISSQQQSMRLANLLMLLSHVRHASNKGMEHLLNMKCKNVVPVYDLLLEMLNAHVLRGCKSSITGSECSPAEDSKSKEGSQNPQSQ

Row | SMILES | Ki (Histamine H3 receptor [1]) [nM] | Activity (Rattus norvegicus [3]) [%] | EC50 (Histamine H3 receptor [4]) [nM] | IC50 (Histamine H3 receptor [6]) [nM] | Ki (Histamine H3 receptor [7]) [nM] | also measured
1 | C[C@H]1CCCN1CCCOc1ccc2c(c1)CC[C@@H]1[C@@H]2CC[C@]2(C)[C@@H](N3CCCC3)CC[C@@H]12 | 5.6 | 76 | 0.6 | 11.6 | 0.3 | Ratio Ki [2]: 22; Ki [5]: 122 nM
2 | C[C@]12CC[C@@H]3c4ccc(OCc5ccncc5)cc4CC[C@H]3[C@@H]1CC[C@@H]2N1CCCC1 | 7.3 | 51 | – | – | 0.87 | –
3 | C[C@H]1[C@H]2CC[C@H]3[C@@H]4CC=C5C[C@@H](N(C)C)CC[C@]5(C)[C@H]4CC[C@]23CN1C | – | 84 | – | – | – | Activity [8]: 34%
4 | C[C@]12CC[C@@H]3c4ccc(OCCCN5CCNC(=O)C5)cc4CC[C@H]3[C@@H]1CC[C@@H]2N1CCCC1 | 3.2 | 73 | 0.6 | 17.4 | 0.6 | –
5 | C[C@@H]1Cc2cc(OCCCN3CCCC3)ccc2[C@H]2CC[C@]3(C)[C@@H](N4CCCC4)CC[C@H]3[C@H]12 | 18.3 | 72 | 0.2 | 12 | 1.2 | –
6 | C[C@]12CC[C@@H]3c4ccc(OCCCN5CCC(O)CC5)cc4CC[C@H]3[C@@H]1CC[C@@H]2N1CCCC1 | 24.3 | 55 | 4.4 | 4.2 | 5 | –
7 | CN1CCC[C@H]2[C@@H]3CC[C@H]4C[C@@H](OC(=O)CCN5CCCC5)CC[C@]4(C)[C@H]3CC[C@@]21C | 39 | 44 | – | – | 10 | –
8 | C[C@]12CC[C@@H]3c4ccc(OCCCN5CCC(O)C5)cc4CC[C@H]3[C@@H]1CC[C@@H]2N1CCCC1 (stereo partly drawn) | 16.8 | 64 | 1.2 | 3.9 | 5.2 | –
9 | C[C@]12CC[C@@H]3c4ccc(OCc5ccccn5)cc4CC[C@H]3[C@@H]1CC[C@@H]2N1CCCC1 | 7.6 | – | 1 | 50.8 | 2.2 | Stability [9]: 93%; half-life [10]: 1.5 h; Papp [11]: 10.1 ×10⁻⁶ cm/s; Vd [12]: 19.7 L/kg; Stability [13]: 67%; half-life [14]: 1.5 h; bioavailability [15]: 25.4%; Ratio Ki [2]: 141; inhibition in vivo at 10 mg/kg (Rattus norvegicus [16]): 122%; Kp at 5 h [17]: 41.1; Ki [5]: 1080 nM; Activity (Rattus norvegicus [18]): 51%; Tmax [19]: 1 h; Emax (Histamine H3 receptor [20]): 23%; solubility thermodynamic at 24 h [21]: 93 µM (≈ 38.7 µg/mL)
10 | CC1CCCN1CCCOc1ccc2c(c1)CC[C@@H]1[C@@H]2CC[C@]2(C)[C@@H](N3CCCC3)CC[C@@H]12 (mixture of isomers) | 3.6 | 69 | 0.4 | 12.1 | 0.5 | Ratio Ki [2]: 62; Ki [5]: 224 nM
11 | C[C@]12CC[C@@H]3c4ccc(OCCCN5CCC(C(N)=O)CC5)cc4CC[C@H]3[C@@H]1CC[C@@H]2N1CCCC1 | 3.1 | 37 | 3.9 | 3 | 7 | –
12 | C[C@]12CC[C@@H]3c4ccc(OCc5cccnc5)cc4CC[C@H]3[C@@H]1CC[C@@H]2N1CCCC1 | 19 | – | – | – | 3 | Ki [5]: 797 nM; Activity (Rattus norvegicus [18]): 57%
13 | C[C@]12CC[C@@H]3c4ccc(OCc5ccc(Cl)cn5)cc4CC[C@H]3[C@@H]1CC[C@@H]2N1CCCC1 | 49 | – | – | – | 1.6 | Ki [5]: 705 nM; Activity (Rattus norvegicus [18]): 66%
14 | CC[C@]12CC[C@@H]3c4ccc(OCCCN5CCCC5)cc4CC[C@H]3[C@@H]1CC[C@@H]2N1CCCC1 | 16.6 | 69 | 0.9 | 16 | 0.8 | –
15 | C[C@]12CC[C@@H]3c4ccc(OCc5ccccc5)cc4CC[C@H]3[C@@H]1CC[C@@H]2N1CCCC1 | – | 5 | – | – | 216 | –
16 | CC(=O)C1CCN(CCCOc2ccc3c(c2)CC[C@@H]2[C@@H]3CC[C@]3(C)[C@@H](N4CCCC4)CC[C@@H]23)CC1 | 7.5 | – | 1.4 | 14.2 | 2.7 | –
17 | C[C@]12CC[C@H]3[C@@H](CC=C4C[C@@H](OCCCN5CCCC5)CC[C@@]43C)[C@@H]1CC[C@@H]2N1CCCC1 | 10.2 | – | – | – | 4.3 | Activity (Rattus norvegicus [18]): 92%
18 | S=C(NC1CCCCC1)N1CCC(c2cnc[nH]2)CC1 [THIOPERAMIDE] | 23 | – | – | – | – | Emax (Histamine H3 receptor [20]; filed as inverse agonist): 50%
19 | C[C@]12CC[C@@H]3c4ccc(OCCCCN5CCCC5)cc4CC[C@H]3[C@@H]1CC[C@@H]2N1CCCC1 | 24.8 | 73 | 0.7 | 7.5 | 0.8 | –
20 | C[C@]12CC[C@@H]3c4ccc(OCCCN5CCCCCC5)cc4CC[C@H]3[C@@H]1CC[C@@H]2N1CCCC1 | 2.1 | 77 | 0.6 | 17.5 | 0.6 | –
21 | Clc1ccc(CCCOCCCN2CCCCC2)cc1 [PITOLISANT] | – | – | – | – | – | Ki [5]: 19 nM; Emax (Histamine H3 receptor [20]; filed as inverse agonist): 55%
22 | C[C@]12CC[C@@H]3c4ccc(OCCN5CCCC5)cc4CC[C@H]3[C@@H]1CC[C@@H]2N1CCCC1 | 23.1 | 69 | 0.3 | 29 | 1.9 | –
23 | C[C@@]12CC[C@@H]3c4ccc(OCCCN5CCCC5)cc4CC[C@H]3[C@@H]1CCC2N1CCCC1 (stereo partly drawn) | 6.1 | 71 | 0.8 | 16 | 1.4 | –
24 | C[C@]12CC[C@@H]3c4ccc(OCCCN5CCCC5)cc4CC[C@H]3[C@@H]1CC[C@@H]2N1CCCC1 | 2.4 | 74 | 0.1 | 6.1 | 0.6 | Activity [22]: 19%; Activity [23]: 44%; Activity [24]: 36%; Ki [5]: 110 nM; Activity [25]: 64%; Activity [26]: 26%
